Experimental data as given in PMC8800105 (The Journal of Biological Chemistry, 2021).

Biological target: TRPA1 (Homo sapiens, UniProt O75762)
Assay: whole-cell patch clamp in HEK293
Assay type: cell-based

Chain of TRPA1 (O75762 whole entry): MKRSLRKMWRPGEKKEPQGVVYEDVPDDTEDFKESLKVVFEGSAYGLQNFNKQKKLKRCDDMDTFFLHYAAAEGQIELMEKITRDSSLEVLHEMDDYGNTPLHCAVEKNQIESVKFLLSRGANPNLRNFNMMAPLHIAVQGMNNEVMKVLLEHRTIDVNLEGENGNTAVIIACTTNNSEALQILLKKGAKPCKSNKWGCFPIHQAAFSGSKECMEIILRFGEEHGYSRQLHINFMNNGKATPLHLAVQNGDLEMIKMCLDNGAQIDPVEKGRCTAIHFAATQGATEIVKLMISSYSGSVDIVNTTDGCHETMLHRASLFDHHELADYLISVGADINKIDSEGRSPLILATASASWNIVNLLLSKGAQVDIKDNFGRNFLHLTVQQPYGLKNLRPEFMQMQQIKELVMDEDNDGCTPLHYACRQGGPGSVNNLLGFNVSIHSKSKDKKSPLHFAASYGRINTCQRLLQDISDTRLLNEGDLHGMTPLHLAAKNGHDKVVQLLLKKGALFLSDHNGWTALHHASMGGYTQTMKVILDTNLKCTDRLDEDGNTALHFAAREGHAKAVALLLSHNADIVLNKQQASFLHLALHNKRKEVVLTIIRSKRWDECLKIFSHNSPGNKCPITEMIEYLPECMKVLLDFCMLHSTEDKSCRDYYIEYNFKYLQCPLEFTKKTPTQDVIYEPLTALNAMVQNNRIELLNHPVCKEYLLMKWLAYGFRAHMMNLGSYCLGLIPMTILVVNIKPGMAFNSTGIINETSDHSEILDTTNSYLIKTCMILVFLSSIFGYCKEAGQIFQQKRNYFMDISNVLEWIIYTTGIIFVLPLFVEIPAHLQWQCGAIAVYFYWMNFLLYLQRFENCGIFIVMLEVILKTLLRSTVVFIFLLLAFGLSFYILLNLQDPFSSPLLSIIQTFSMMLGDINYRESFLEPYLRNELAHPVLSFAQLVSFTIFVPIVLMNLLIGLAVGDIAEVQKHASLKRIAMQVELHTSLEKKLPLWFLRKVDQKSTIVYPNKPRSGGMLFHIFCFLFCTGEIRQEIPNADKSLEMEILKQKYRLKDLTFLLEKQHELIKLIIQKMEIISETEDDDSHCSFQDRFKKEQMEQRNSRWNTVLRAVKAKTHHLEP

O=[N+]([O-])c1ccc(Cl)c([N+](=O)[O-])c1 [DNCB]
EC50: 42.4 ± 20.9 µM

O=[N+]([O-])c1ccc(F)c([N+](=O)[O-])c1 [DNFB]
EC50: 2.3 ± 0.7 µM
